# Assay results: patent US20090036461A1, “Use of Azabicyclo Hexane Derivatives” (priority 2005, published 2009)
# Entries after “also recorded” stand apart in the source; their conditions may differ.
# What was measured:
# D3 = D3 (Homo sapiens, UniProt P35462); assay: functional pKi (fpKi) at D3, comparison of separated enantiomers; assay type: biochemical; conditions: difference in fpKi between the two separated enantiomers of the same example
# male rats [1] = assay: copulatory (consummatory) behaviour of male rats with a receptive female; assay type: in vivo, Wistar rats; conditions: -1 hour; for Ejaculation latency / Intromission latency / Mount latency / Post ejaculatory interval / n. of intromissions / n. of mounts: male rats, n = 9, mean ± s.e.m.
# Method: (§1) Background: In order to evaluate the effect on natural rewards and to potentially differentiate this approach compared with clinically active gold standards, the effect of the title compound (0.03, 0.3 and 3 mg/kg i.p.; −1 hour, prepared in an analogous way with Example 40) on sexual desire and consummatory performance was evaluated in the rat after acute administration. The effect of the title compound was assessed according to a Latin squared experimental design in male (about 300 g upon arrival) and female (250 g upon arrival) Wistar rats.
# (§2) Method—Male rats, sexually experienced were treated with the title compound and submitted 1-hr later to a sexual incentive motivation test (10 minutes) in which male rats were singly exposed to receptive female and active male incentives (Agmo A., Journal of Comparative Psychology. 117(1), March 2003, 3-14). The following parameters were scored: (1) time spent in the incentive zones (close to the incentive cage); (2) number of visits to the zones, and (3) preference score (time spent in the sexual incentive zone/(time in the sexual incentive zone+time in the social incentive zone)). Immediately after the incentive motivation test each subject was transferred to an observation cage in the presence of a receptive female and its copulatory behaviour was then recorded until the end of the 1st post-ejaculatory interval. In the observation cage, the following behavioural parameters were recorded: (1) mount latency (time from the introduction of the female until the first mount with pelvic thrusting); (2) intromission latency (time from the introduction of the female until the first mount with vaginal penetration); (3) ejaculation latency (time from the 1st intromission until ejaculation); (4) post-ejaculatory interval (time from ejaculation until the following intromission); (5) number of mounts, and (6) number of intromission.
# (§3) Results—Data are expressed as mean ±s.e.m.
# male rats [2] = assay: sexual incentive motivation test in male rats after acute administration; assay type: in vivo, Wistar rats; conditions: -1 hour; for Time sexual incentive zone (s) / Time social incentive zone / n. of visits social incentive zone / n. of visits to sex. Incentive zone: male rats, n = 9, mean ± s.e.m.
# Method: as §1, §2, §3
# [3] = system: Female Sprague Dawley rats; assay: stress-induced food intake, animal model for binge eating (diet restriction cycles + foot shock); assay type: in vivo
# Source text: Dieting is the strongest predictor of overeating in response of stress. In this specific case, binge eating or binge/purge behaviours are recognized as key features of the human diseases (bulimia nervosa or anorexia, respectively). Two critical factors seem to modulate the production of binge eating: a history of food restriction and access of high palatable (HP) food (dense in fat and sugar) and the interaction with environmental stress. Based on these premises, preclinical models can be developed to explore the potential therapeutic effect of test compounds on binge eating. One model which may be used is described by Hagan et al (Hagan, M. M. et al., Physiol and Beh 77 (2002): 45-54).
# Slight modifications such as those below may be applied to their model, for example: • Instrument to deliver FS: Passive Avoidance (Gemini Avoidance System, Coubourn Instrument, San Diego) may be used instead of the 4 closed runways with metal bar floors (Coulbourn Instruments Habitest System, Allentown, Pa.). • Refeeding: 4 days instead of 6 days • HP food: Baiocchi® (Barilla) instead of Oreo® biscuits • For the submission of the animals to the pharmacological treatment, see: Placidi et al., Int J Eat Disord 2004 36 (3) 328-41
# Based on the model by Hagan et al, and incorporating the above changes, a model for binge eating may be set up as follows. Female Sprague Dawley rats (7 weeks old) can be single housed at 21±1 C and under a 12 h/12 h light/dark cycle (dark phase: 18:00-06:00) for all the period of the experiment. Before beginning, rats can be habituated to these conditions for 7 days. The rats can then be divided into 2 groups (16 animals/group). One group may take food ad lib (non restricted group: NR) for the 24 days of the experiment, while the other (Restricted Group: R) may receive a restricted diet (66% of the quantity food intake that the other control group was eating) during 4 days, and eat ad lib for the following 4 days. This cycle can be repeated 3 times. Following the last day of refeeding, each group can be subdivided in two. Eight animals of group NR and 8 animals of group R can receive a stress stimulus (4 Foot Shocks (FS) of 0.6 mA separated by 15 sec intervals) while the other 2 subgroups can remain in the same cage where FS is delivered for the same period of time, but without receiving the FS (no shocked: NS). The 4 groups are S/NR, NS/NR, S/R and NS/R. Immediately following time in the shock apparatus, rats can be submitted to a pharmacological treatment (administration of the test compound or of the vehicle) and then be returned to the animal colony. A pre-measured amount of pellets or HP food (Baiocchie) can be put in each cage, and food intake measured after 4 h. Food intake can be expressed in kcal.
# Rationale—The effects of the title compound, prepared in an analogous way with Example 123, were tested in the animal model discussed above. The aim of the present study was to assess the effect of this compound in animals that received 3 cycles of diet (restricted:R) and stress (shocked) conditions similar to binge eating in humans.
# Methods—Female Sprague Dawley rats (7-week old) were single housed at 21±1° C. and under a 12 h/12 h light/dark cycle (dark phase: 18:00-06:00) for all the entire experimental period. Rats received a restricted diet (66% of the food intake vs. control group) during 4 days, and ate ad libitum for the following 4 days. This cycle was repeated 3 times. Additionally, two other groups were eating ad libitum (not restricted: NR) and received the shock (NR/S). Following the last day of refeeding, the animals received a stress stimulus (4 Foot Shocks (FS) of 0.6 mA separated by 15 sec intervals) and received vehicle or the title compound (0.03, 0.3 or 3 mg/kg i.p.) immediately after the shock. These were the S/R (shocked/Restricted) rats. The S/NR rats received the shock and vehicle or the title compound (prepared in an analogous way with Example 123; 3 mg/kg i.p.) in the same way as the S/R groups. […]
# [4] = 0.03, 0.3 and 3 mg/kg i.p., result in words
# [5] = S/NR (shocked/not restricted) rats, 3 mg/kg i.p. after foot shock
# [6] = S/R (shocked/restricted) rats, 0.03 mg/kg i.p. after foot shock
# [7] = S/R (shocked/restricted) rats, 0.3 mg/kg i.p. after foot shock
# [8] = S/R (shocked/restricted) rats, 3 mg/kg i.p. after foot shock
# Chain of D3 (P35462 whole entry): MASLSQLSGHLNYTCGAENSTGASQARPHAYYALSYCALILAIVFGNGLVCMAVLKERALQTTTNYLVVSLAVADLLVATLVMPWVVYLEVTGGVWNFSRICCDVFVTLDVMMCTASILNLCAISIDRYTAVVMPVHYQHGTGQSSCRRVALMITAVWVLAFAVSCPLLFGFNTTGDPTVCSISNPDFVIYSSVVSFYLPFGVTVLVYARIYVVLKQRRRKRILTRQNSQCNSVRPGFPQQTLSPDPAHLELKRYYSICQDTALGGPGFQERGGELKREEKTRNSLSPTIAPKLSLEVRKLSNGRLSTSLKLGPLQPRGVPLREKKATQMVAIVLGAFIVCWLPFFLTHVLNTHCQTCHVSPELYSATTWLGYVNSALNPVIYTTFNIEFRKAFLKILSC
structure (smiles),measurement,setting,value
"Cc1ncoc1-c1nnc(SCCCN2C[C@@H]3C[C@]3(c3ccc(C(F)(F)F)cc3F)C2)n1C.Cl (single isomer, unassigned) [Example 40]",fpKi (D3) higher than the other enantiomer,D3,> 1 log-unit
same,effect on ejaculation patterns,male rats [1]; [4],"significant increase in the number of mounts, ejaculation latency and post-ejaculatory interval"
same,Ejaculation latency,male rats [1]; 0.03 mg/kg i.p.,202.2 ± 19.6 s
same,Intromission latency,male rats [1]; 0.03 mg/kg i.p.,6.3 ± 0.8 s
same,Mount latency,male rats [1]; 0.03 mg/kg i.p.,4.6 ± 0.8 s
same,Post ejaculatory interval,male rats [1]; 0.03 mg/kg i.p.,403.0 ± 37.4 s
same,n. of intromissions,male rats [1]; 0.03 mg/kg i.p.,15.8 ± 1.3
same,n. of mounts,male rats [1]; 0.03 mg/kg i.p.,3.4 ± 0.7
same,Ejaculation latency,male rats [1]; 0.3 mg/kg i.p.,228.3 ± 53.3 s
same,Intromission latency,male rats [1]; 0.3 mg/kg i.p.,7.0 ± 1.1 s
same,Mount latency,male rats [1]; 0.3 mg/kg i.p.,5.3 ± 0.8 s
same,Post ejaculatory interval,male rats [1]; 0.3 mg/kg i.p.,455.3 ± 73.4 s
same,n. of intromissions,male rats [1]; 0.3 mg/kg i.p.,15.6 ± 1.5
same,n. of mounts,male rats [1]; 0.3 mg/kg i.p.,2.3 ± 0.8
same,Ejaculation latency,male rats [1]; 3 mg/kg i.p.,272.8 ± 41.6 s
same,Intromission latency,male rats [1]; 3 mg/kg i.p.,8.8 ± 2.0 s
same,Mount latency,male rats [1]; 3 mg/kg i.p.,6.4 ± 1.5 s
same,Post ejaculatory interval,male rats [1]; 3 mg/kg i.p.,485.1 ± 67.3 s
same,n. of intromissions,male rats [1]; 3 mg/kg i.p.,16.8 ± 2.1
same,n. of mounts,male rats [1]; 3 mg/kg i.p.,4.8 ± 1.2
same,effect on sexual desire of male rats exposed to sexual and social stimuli,male rats [2]; [4],did not affect sexual desire
same,Time sexual incentive zone (s),male rats [2]; 0.03 mg/kg i.p.,367.57 ± 23.53++ s
same,Time social incentive zone,male rats [2]; 0.03 mg/kg i.p.,73.69 ± 12.48 s
same,n. of visits social incentive zone,male rats [2]; 0.03 mg/kg i.p.,15.33 ± 1.60
same,n. of visits to sex. Incentive zone,male rats [2]; 0.03 mg/kg i.p.,23.44 ± 1.95++
same,Time sexual incentive zone (s),male rats [2]; 0.3 mg/kg i.p.,335.12 ± 32.47++ s
same,Time social incentive zone,male rats [2]; 0.3 mg/kg i.p.,86.84 ± 13.38 s
same,n. of visits social incentive zone,male rats [2]; 0.3 mg/kg i.p.,17.44 ± 2.49
same,n. of visits to sex. Incentive zone,male rats [2]; 0.3 mg/kg i.p.,23.89 ± 2.06++
same,Time sexual incentive zone (s),male rats [2]; 3 mg/kg i.p.,355.91 ± 13.70++ s
same,Time social incentive zone,male rats [2]; 3 mg/kg i.p.,76.83 ± 10.05 s
same,n. of visits social incentive zone,male rats [2]; 3 mg/kg i.p.,14.00 ± 1.85
same,n. of visits to sex. Incentive zone,male rats [2]; 3 mg/kg i.p.,21.78 ± 1.72++
"Cc1ncoc1-c1nnc(SCCCN2C[C@@H]3C[C@]3(c3ccc(C(F)(F)F)cc3F)C2)n1C.O=C(O)[C@H](O)[C@@H](O)C(=O)O [Example 123, (1S,5R)-1-[2-Fluoro-4-(trifluoromethyl)phenyl]-3-(3-{[4-methyl-5-(4-methyl-1,3-oxazol-5-yl)-4H-1,2,4-triazol-3-yl]thio}propyl)-3-azabicyclo[3.1.0]hexane tartrate]","inhibitory effect in non-stressed animals, in respect to controls","[3]; 3 mg/kg i.p., result in words, tartrate",did not show any inhibitory effect; also recorded: No significant effects
same,Chow Intake after 4 h,[3]; [5],1.92 ± 0.66 kcal
same,HP Intake after 4 h,[3]; [5],8.73 ± 2.75 kcal
same,Total Food Intake after 4 h,[3]; [5],10.65 ± 2.75 kcal
same,Chow Intake after 4 h,[3]; [6],1.95 ± 0.58 kcal
same,HP Intake after 4 h,[3]; [6],17.11 ± 2.49 kcal
same,Total Food Intake after 4 h,[3]; [6],19.06 ± 2.44 kcal
same,Chow Intake after 4 h,[3]; [7],2.09 ± 0.74 kcal
same,HP Intake after 4 h,[3]; [7],14.44 ± 2.15 kcal
same,Total Food Intake after 4 h,[3]; [7],16.54 ± 1.94 kcal
same,Chow Intake after 4 h,[3]; [8],2.62 ± 0.79 kcal
same,HP Intake after 4 h,[3]; [8],8.89 ± 1.90 kcal
same,Total Food Intake after 4 h,[3]; [8],11.51 ± 1.99 kcal
same,effect on total Food Intake,"[3]; S/R rats, highest dose of 3 mg/kg, 1-way ANOVA, result in words",significantly decreased total food intake
same,effect on HP intake,"[3]; S/R rats, highest dose of 3 mg/kg, Dunnett's p<0.01, result in words",significantly decreased HP intake
same,effect on Chow intake,"[3]; S/R rats, highest dose of 3 mg/kg, Dunnett's p<0.05, result in words",significantly decreased chow Intake
same,effect on stress-induced overeating,[3]; result in words,significant inhibitory effect on stress-induced overeating
